melting point	Structure (SMILES)
107 to 108 °C	CC(C)(COc1ccc(CC2SC(=O)NC2=O)cc1)c1ccccc1 (configuration not stated)
162 to 164 °C	O=c1oc(-c2ccccc2)cc(O)c1SCc1ccc2c(c1)OCO2
59 to 61 °C	O=C1c2ccccc2OCN1CCO
181 to 182 °C	COC(=O)/C=C(\c1ccccc1)c1ccc2c(c1)C(C)(C)OC(=O)N2
266 to 270 °C	O=C(O)c1ccccc1Nc1ccc([N+](=O)[O-])cc1[N+](=O)[O-]
157 to 159 °C	COC(=O)c1c2n(c3ccccc13)Cc1ccccc1N1CCN(C)CC21 (configuration not stated)
> 275 °C	CCOC(=O)Nc1nc(-c2ccccc2)c(-c2nc3ccccc3c(=O)n2-c2ccc(Cl)cc2)s1
59 to 60 °C	COC(=O)c1ccc(CCc2nc(-c3ccccc3)oc2C)cc1
76 to 77 °C	N#CC1(c2ccc([N+](=O)[O-])cc2)CCCC1
200 to 212 °C	O=c1ccn2c(c1O)C(c1ccc(Br)cc1)OCC2 (configuration not stated)
87.8 °C	CCOC(=O)/C=C(/c1ccccc1)c1ccc([N+](=O)[O-])c(COS(C)(=O)=O)c1
138 to 140 °C	Cc1cccc(NC(=O)CCCCl)c1CNc1cccn2c(C)c(C)nc12
222 to 224 °C	CC(C)n1c(C=O)c(-c2ccc(F)cc2)c(-c2ccccc2)c1C(=O)Nc1ccccc1
210 to 212 °C	O=C(CNc1ccccc1)Nc1ccc(Cl)cc1C(=O)O
156 to 158 °C	CC(=O)NNC(=O)c1cccc(I)c1
68.5 to 70 °C	CCc1cccc(C)c1NC(=O)C(C)N (configuration not stated)
83 to 84 °C	CN(C)C(=O)N(C)C(=O)N1CCN(c2ccc(F)cc2)CC1
124 to 126 °C	CC(C)(C)ONC(=O)Oc1ccccc1
115 to 117 °C	CC(C)(C)c1ccc2c(c1)C(C(=O)Nc1c(Cl)cccc1Cl)c1ccccc1CO2 (configuration not stated)
198 °C	COC(=O)c1ccc(-c2nc(NCc3ccc4c(c3)OCO4)c3c4c(sc3n2)CCCC4)cc1
80 to 82 °C	CS(=O)(=O)ON=C(Cl)c1ccc(Cl)cc1
156 to 158 °C	Cc1sc2c(c1C(=O)c1ccc([N+](=O)[O-])cc1)CCC2C(=O)O (configuration not stated)
246 to 248 °C	CC1(C)CCC(C)(C)c2cc(Cn3cccn3)c(/C=C/c3ccc(C(=O)O)cc3)cc21
181 to 185 °C	CC1=NC(NC(=O)Nc2cccc(Cl)c2)C(=O)N(CC(=O)N2CC3CCC(CC3)C2)c2c(C)cccc21 (configuration not stated)
106 to 107 °C	COC(=O)c1cc2cc(COc3cccnc3)ccc2s1
128 to 131 °C	NNCC1(O)c2ccccc2C=Cc2ccccc21
120 to 121 °C	C=Cc1ccc(NC(=O)OCC2(C)COC(=O)OC2)cc1
207 °C	CC(C)(C)c1cc(CCc2ccccc2NC(=O)Nc2ccccc2)cc(C(C)(C)C)c1O

Second part, the molecule before the results:

Structure (SMILES)	melting point
CCOC(=O)c1cn(Cc2ccccc2)nc1OCc1ccc(OCc2nc(-c3ccco3)oc2C)c(OCC)c1	121 to 122 °C
CCCN(CCC)Cc1cnc(-c2ncn3c2CN(C)C(=O)c2sccc2-3)o1	142 to 144 °C
Cn1c(C(F)(F)F)c(-c2ccc(C[C@H](NC(=O)c3c(F)cccc3C(F)(F)F)C(=O)O)cc2)c(=O)n(C)c1=O	122 to 125 °C
C#CC12CCCN(CC1)C2 (configuration not stated)	41 to 42 °C
Oc1ccc(-c2cocn2)cc1	148 °C
CC(C)(C)OC(=O)N1CCN(C(c2ccccc2)c2ccccc2)CC1	129 to 131 °C
CCCOc1cc(Oc2ccc(C(F)(F)F)cn2)ccc1CCCOc1c(CC(=O)O)cccc1OC	78 to 79 °C
O=[N+]([O-])c1ccc(F)c(I)c1F	46.1 to 47.5 °C
CCCCNc1c(C(=O)OCC)c(C)nc(NCC)c1[N+](=O)[O-]	53 to 55 °C
CCN(C=NS(=O)(=O)NC(=O)Nc1nc(OC)cc(OC)n1)CSC	143 to 144 °C
CCOC(=O)C(=CNn1cnnc1)C(=O)c1cc(F)c(Cl)nc1Cl	89 to 95 °C
CCCCCN1C(=O)C(CCc2nnn[nH]2)(NC(=O)c2ccc(Cl)c(Cl)c2)c2ccccc21 (configuration not stated)	142 °C
N#CCCSc1nnsc1-c1ccccc1	63.5 to 64.5 °C
CC(C)(C)OC(=O)N1CCN(c2cccc3ccc(-n4nnc5ncccc54)cc23)CC1	173 to 175 °C
COc1ccc(CCNc2nc(O)c(C(=O)c3ccco3)c(O)n2)cc1OC	> 250 °C
CCN(CC)CCNc1nc2ccccc2n(-c2ccc(Cl)cc2)c1=O	96 to 98 °C
Cc1cc(CCc2c(Br)c(C)c(O)c(C)c2Br)c(Br)c(C)c1O	249 to 255 °C
Cc1oc(-c2ccccc2)nc1COc1ccc(C(C)CCCC#N)cc1 (configuration not stated)	76 to 77 °C
Cc1oc(-c2ccco2)nc1COc1ccc(C#N)cn1	105 to 106 °C
BrCCCCOc1ccc2c(ccn2-c2ccc(Br)cc2)c1	80 to 81 °C
N#Cc1ncc(Br)cc1Br	109 to 112 °C
NS(=O)(=O)c1cccc(-c2cn(-c3nc(-c4ccc(F)cc4)cc(C(F)(F)F)n3)cn2)c1	260 °C

Structure (SMILES)	melting point
CCOc1ccc2c(c1)C(C)=CC(C)(C)N2C1O[C@H](COC(C)=O)[C@@H](OC(C)=O)[C@H](OC(C)=O)[C@H]1OC(C)=O (some centres not stated)	180 to 181 °C
O=[N+]([O-])C1CC=CCC1c1ccccc1 (configuration not stated)	114 to 116 °C
CN(C)c1cccc(Oc2ncccc2C(=O)NCc2ccccc2Cl)c1	85 to 87 °C
Cc1c(Cc2cccnc2)sc2ccc(C(=O)O)cc12	230 to 232 °C
CCOC(=O)CCCCCCCn1cnc(-c2ccccc2)c1	56 to 57 °C
CC(C)OP(=O)(Cc1c(C2CCCCC2)cc(O)cc1C1CCCCC1)OC(C)C	143 °C
c1ccc(CSc2ncccc2C2=NOCC2)cc1	97 to 98 °C
CC(=O)OC1CC2=CCC3C4CCC(C(C)CBr)C4(C)CCC3C2(C)C(OC(C)=O)C1 (configuration not stated)	75 to 76 °C
C#Cc1cnc2sc(S(=O)(=O)CCCCCCC)nn2c1=O	180 to 182 °C
CS(=O)(=O)c1ccc(-c2cnn(CC(F)=C(F)F)c(=O)c2-c2ccc(F)cc2)cc1	154 to 156 °C
CCCCOC(=O)c1cc(Oc2ccc3c(C(=O)Nc4cccc(C(F)(F)F)c4)cccc3c2)ccn1	128 to 130 °C
O=C(O)C1COC(C(F)(F)F)(C(F)(F)F)O1 (configuration not stated)	62 to 63 °C
Nc1nc(-c2cc(Cl)ccc2Cl)nc(N2CCN(CCO)CC2)n1	185 to 187 °C
COC1(c2cccc(OCc3ccc(-n4cnc(C)c4)cc3)c2)CCOCC1	120 to 121 °C
Nc1ccn2nc(-c3ccccc3)nc2c1	212 to 213 °C
COc1cc(COc2nn(-c3ccccc3)cc2/C=C/S(C)=O)ccc1OCc1nc(-c2ccco2)oc1C (configuration not stated)	156 to 157 °C
O=C1NC(=O)C(c2c[nH]c3ccccc23)C1C(=O)c1cn2c3c(cccc13)CCC2 (configuration not stated)	283 to 285 °C
FC(F)(F)c1ccc(-c2cc(C(F)(F)F)c3ncc(I)n3n2)cc1	123 to 125 °C
Cc1c(O)cc2c(c1C)CCC2c1c[nH]cn1 (configuration not stated)	198 to 202 °C
CNC(=O)C(NC(=O)c1cn(C)nc1C(F)(F)F)C(/C=C/c1ccccc1)c1ccccc1 (configuration not stated)	192 to 194 °C
CS(=O)(=O)c1ccc(-c2[nH]c3ccccc3c2-c2ccc(Cl)cc2)cc1	198 to 200 °C
Cc1ccc2[nH]c(=O)sc2c1	70 to 71 °C
